In PubChem BioAssay AID2393 (NMMLSC, 2010):
Calls of active or inactive are those of the source.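 The calls were made as follows: active = none, because compounds meeting the potency rule were filed inconclusive for hitting several proteins; inconclusive = EC50 under 20 µM with over 15% binding change; inactive = the rest.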

How the values were obtained:
Assay in all cases: small GTPase panel, fluorescent GTP binding blockade – biochemical, Mg buffer, constant GTP, RhoA, Rac1, Cdc42, mechanism study for Ras-family GTPase inhibitor project, profiling panel (AID 2393);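 as to EC50: EC50 marks half change in GTP binding and may reflect gain or loss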
[1] = molecular target: Ras-related C3 botulinum toxin substrate 1 (Homo sapiens) (UniProt P63000); conditions: GST-GTPase beads, BODIPY-GTP binding, flow cytometry; for GTP binding remaining (% of DMSO): at 100 µM (top of the series)
[2] = molecular target: Transforming protein RhoA (Homo sapiens) (UniProt P61586); conditions: GST-GTPase beads, BODIPY-GTP binding, flow cytometry, at 100 µM (top of the series)
[3] = molecular target: Cell division control protein 42 homolog (Homo sapiens) (UniProt P60953); conditions: GST-GTPase beads, BODIPY-GTP binding, flow cytometry; for GTP binding remaining (% of DMSO): at 100 µM (top of the series)

Row | Compound | GTP binding remaining (% of DMSO) ([1]; Rac1ACT) | GTP binding remaining (% of DMSO) ([1]; Rac1WT) | GTP binding remaining (% of DMSO) ([2]; RhoACT) | GTP binding remaining (% of DMSO) ([2]; RhoWT) | GTP binding remaining (% of DMSO) ([3]; Cdc42ACT) | GTP binding remaining (% of DMSO) ([3]; Cdc42WT) | EC50 ([3]; Cdc42ACT) [µM] | EC50 ([3]; Cdc42WT) | EC50 ([1]; Rac1ACT) | EC50 ([1]; Rac1WT)
1 | COc1ccc(C2CC(c3cccc(C(F)(F)F)c3)=NN2c2ccc(S(N)(=O)=O)cc2)cc1 (centres undefined) | inactive | inactive | inactive | inactive | inactive | inactive |  |  |  | 
2 | COc1ccc(-c2ccc(CCC(=O)N3CCN(c4cc(C)ccc4C)CC3)o2)cc1 | inactive | inactive | inactive | inactive | inactive | inactive |  |  |  | 
3 | NS(=O)(=O)c1ccc(N2N=C(c3ccccc3)CC2c2cccc(Br)c2)cc1 (centres undefined) | inactive | inactive | inactive | inactive |  |  | 5.86 | 6.95 µM |  | 
4 | NS(=O)(=O)c1ccc(N2N=C(c3ccccc3)CC2c2ccccc2)cc1 (centres undefined) | inactive | inactive | inactive | inactive |  |  | 13.1 | 13.4 µM |  | 
5 | NS(=O)(=O)c1ccc(N2N=C(c3ccccc3)CC2c2ccccc2Cl)cc1 (centres undefined) | inactive | inactive | inactive | inactive | inactive |  |  | inactive |  | 
6 | Cc1ccccc1C1CC(c2ccccc2)=NN1c1ccc(S(N)(=O)=O)cc1 (centres undefined) | inactive | inactive | inactive | inactive |  |  | 14.7 | 15.3 µM |  | 
7 | COc1ccc(C2CC(c3cccc(C)c3)=NN2c2ccc(S(N)(=O)=O)cc2)cc1 (centres undefined) |  | inactive | inactive | inactive |  |  | 1.85 | 2.11 µM | inactive | 
8 | COc1ccc(C2CC(C(C)(C)C)=NN2c2ccc(S(N)(=O)=O)cc2)cc1 (centres undefined) |  | inactive | inactive | inactive |  |  | 16.4 | 14.4 µM | inactive | 
9 | COc1ccc(C2CC(c3ccsc3)=NN2c2ccc(S(N)(=O)=O)cc2)cc1 (centres undefined) | inactive |  | inactive | inactive |  |  | 5.22 | 5.19 µM |  | inactive
